The record followed here is the supplement of paper PMC11208160.
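Also: IS621 recombinase and bridge RNA in Escherichia coli cells.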

This data set can be described thus: recombinant barcode read abundance after kanamycin selection (control-corrected) (log10(CPM+1)); higher = more efficient recombination; sequences stand for … in AGTGCAGAGAAAATCGGCCAGTTTTCTCTGCCTGCAGTCCGCATGCCGT…AGATTTATGCAGCGGACTGCCTTTCTCCCAAAGTGATAAACCGGACAGTATCATGGACCGGTTTTCCCGGTAATCCGTATTTGCAAGGTTGGTTTCACT; site = the 11-nt target. The method in brief: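 For this pooled screen, each oligo contained a promoter, a target, a barcode and the J23119-driven first 104 bases of the bridge RNA. Gibson cloning placed it into a vector supplying the remaining 73 bp and a T7-inducible recombinase, and the pool was co-electroporated into E. coli with a donor plasmid. Recombination efficiency is derived from barcode counts per million at recombinant junctions after averaging and control correction, and is expressed on a log scale as log10(CPM+1), with selection on chloramphenicol/ampicillin/kanamycin plus 0.1 mM IPTG against a chloramphenicol/ampicillin LB agar control.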
“GTGTACCCTTGGGTTCTAACCTGTTGCGG (site GTGTACCCTCC)”: the “recombinant barcode read abundance (log10)” value was 1.93. With “GTGTACCCTTGGGTTCTAACCTGTTGCGG (site GTGTACCCTGC)”, the “recombinant barcode read abundance (log10)” value was 0.161. On to “GTGTACCCTTGGGTTCTAACCTGTTGCGG (site GTGTACCCTTC)”, for which the “recombinant barcode read abundance (log10)” value is 0.253.

For “GTGTAGTCTTGGGTTCTAACCTGTTGCCG (site GTGTAGGCTCT)”, the “recombinant barcode read abundance (log10)” value amounted to 0.254. For the sequence “GTGTAGTCTTGGGTTCTAACCTGTTGCCG (site GTGTAGTCTCG)”, the “recombinant barcode read abundance (log10)” value worked out at 1.19. Take “GTGTCACCTTGGGTTCTAACCTGTTGCCT (site GTGTCAACTAG)”: the “recombinant barcode read abundance (log10)” value worked out at 0.205. In the case of “GTGTCACCTTGGGTTCTAACCTGTTGCCT (site GTGTCACCTAG)”, the “recombinant barcode read abundance (log10)” value came to 1.52. Consider “GTGTCACCTTGGGTTCTAACCTGTTGCCT (site GTGTCAGCTAG)”, for which the “recombinant barcode read abundance (log10)” value was 0.00534. Turning to “GTGTCACCTTGGGTTCTAACCTGTTGCCT (site GTGTCATCTAG)”, the “recombinant barcode read abundance (log10)” value was 0.091. In the case of “GTGTCTCCTTGGGTTCTAACCTGTTGCCT (site ATGTCTCCTAG)”, the “recombinant barcode read abundance (log10)” value is 0.233. With “GTGTCTCCTTGGGTTCTAACCTGTTGCCT (site CTGTCTCCTAG)”, the “recombinant barcode read abundance (log10)” value came to 0.103. Regarding “GTGTCTCCTTGGGTTCTAACCTGTTGCCT (site GTGTCTCCTAG)”, the “recombinant barcode read abundance (log10)” value came to 0.962. In the case of “GTGTCTCCTTGGGTTCTAACCTGTTGCCT (site TTGTCTCCTAG)” it was 0.22; in that of “GTGTGAGCTTGGGTTCTAACCTGTTGCCG (site GTACGAGCTCG)”, 0.269. For “GTGTGAGCTTGGGTTCTAACCTGTTGCCG (site GTGTGAGCTCG)” the value was 1.74; for “GTGTGTCCTTGGGTTCTAACCTGTTGCCT (site GTGTGTACTAG)”, 0.0295; for “GTGTGTCCTTGGGTTCTAACCTGTTGCCT (site GTGTGTCCTAG)”, 1.31.

For the sequence “GTGTGTCCTTGGGTTCTAACCTGTTGCCT (site GTGTGTGCTAG)”, the “recombinant barcode read abundance (log10)” value was 0.155.

Regarding “GTGTGTCCTTGGGTTCTAACCTGTTGCCT (site GTGTGTTCTAG)”, the “recombinant barcode read abundance (log10)” value amounted to 0.108. For “GTTACCGCTTGGGTTCTAACCTGTTGCCT (site GTAACCGCTAG)”, the “recombinant barcode read abundance (log10)” value came to 0.602. Take “GTTACCGCTTGGGTTCTAACCTGTTGCCT (site GTCACCGCTAG)”: the “recombinant barcode read abundance (log10)” value stood at 0.345. Consider “GTTACCGCTTGGGTTCTAACCTGTTGCCT (site GTGACCGCTAG)”, for which the “recombinant barcode read abundance (log10)” value was found to be 0.0865. As for “GTTACCGCTTGGGTTCTAACCTGTTGCCT (site GTTACCGCTAG)”, the “recombinant barcode read abundance (log10)” value stood at 1.64. With “GTTACGTCTTGGGTTCTAACCTGTTGCTT (site AGTACGTCTAA)”, the “recombinant barcode read abundance (log10)” value worked out at 0.115. In the case of “GTTACGTCTTGGGTTCTAACCTGTTGCTT (site GTTACGTCTAA)”, the “recombinant barcode read abundance (log10)” value came to 0.285. In the case of “GTTAGACCTTGGGTTCTAACCTGTTGCCT (site GTTAGACCTAG)”, the “recombinant barcode read abundance (log10)” value was found to be 0.949. On to “GTTAGACCTTGGGTTCTAACCTGTTGCCT (site TGCCTCTCTTA)”, for which the “recombinant barcode read abundance (log10)” value is 0.0193.

Take “GTTCAGCCTTGGGTTCTAACCTGTTGCCT (site GTCGAGCCTAG)”: the “recombinant barcode read abundance (log10)” value was 0.0107. As for “GTTCAGCCTTGGGTTCTAACCTGTTGCCT (site GTTCAGCCTAG)”, the “recombinant barcode read abundance (log10)” value stood at 0.611. Take “GTTCCAGCTTGGGTTCTAACCTGTTGCCT (site AGCAGCCCTCT)”: the “recombinant barcode read abundance (log10)” value came to 0.0192. As to “GTTCCAGCTTGGGTTCTAACCTGTTGCCT (site GTTCCAGCTAG)”, the “recombinant barcode read abundance (log10)” value is 0.792. For “GTTCCATCTTGGGTTCTAACCTGTTGCCT (site GATCCATCTAG)”, the “recombinant barcode read abundance (log10)” value came to 0.172.

As for “GTTCCATCTTGGGTTCTAACCTGTTGCCT (site GCTCCATCTAG)”, the “recombinant barcode read abundance (log10)” value was found to be 0.28. In the case of “GTTCCATCTTGGGTTCTAACCTGTTGCCT (site GGTCCATCTAG)”, the “recombinant barcode read abundance (log10)” value came to 0.216.

“GTTCCATCTTGGGTTCTAACCTGTTGCCT (site GTTCCATCTAG)”: the “recombinant barcode read abundance (log10)” value is 0.601.

For “GTTCCGGCTTGGGTTCTAACCTGTTGCCT (site GTTACGGCTAG)”, the “recombinant barcode read abundance (log10)” value came out at 0.139. On to “GTTCCGGCTTGGGTTCTAACCTGTTGCCT (site GTTCCGGCTAG)”, for which the “recombinant barcode read abundance (log10)” value stood at 0.834.

On to “GTTCCGGCTTGGGTTCTAACCTGTTGCCT (site GTTGCGGCTAG)”, for which the “recombinant barcode read abundance (log10)” value was 0.145. For “GTTCCGGCTTGGGTTCTAACCTGTTGCCT (site GTTTCGGCTAG)” the value was 0.373; for “GTTCCTACTTGGGTTCTAACCTGTTGCCT (site GATCCTACTAG)”, 0.215.

In the case of “GTTCCTACTTGGGTTCTAACCTGTTGCCT (site GCTCCTACTAG)”, the “recombinant barcode read abundance (log10)” value amounted to 0.00954. Consider “GTTCCTACTTGGGTTCTAACCTGTTGCCT (site GGTCCTACTAG)”, for which the “recombinant barcode read abundance (log10)” value amounted to 0.133. As to “GTTCCTACTTGGGTTCTAACCTGTTGCCT (site GTTCCTACTAG)”, the “recombinant barcode read abundance (log10)” value came out at 0.328.

In the case of “GTTGCCACTTGGGTTCTAACCTGTTGCCT (site GTAGCCACTAG)”, the “recombinant barcode read abundance (log10)” value came out at 0.137. In the case of “GTTGCCACTTGGGTTCTAACCTGTTGCCT (site GTCGCCACTAG)” it was 0.0124. As to “GTTGCCACTTGGGTTCTAACCTGTTGCCT (site GTGGCCACTAG)”, the “recombinant barcode read abundance (log10)” value worked out at 0.0918. Turning to “GTTGCCACTTGGGTTCTAACCTGTTGCCT (site GTTGCCACTAG)”, the “recombinant barcode read abundance (log10)” value came to 0.411. “GTTGGAACTTGGGTTCTAACCTGTTGCGT (site GTTGGAACTAC)”: the “recombinant barcode read abundance (log10)” value amounted to 2.05. Regarding “GTTGGAACTTGGGTTCTAACCTGTTGCGT (site GTTGGGACTAG)”, the “recombinant barcode read abundance (log10)” value was determined as 0.312. Consider “GTTGGCGCTTGGGTTCTAACCTGTTGCCT (site GTAGGCGCTAG)”, for which the “recombinant barcode read abundance (log10)” value is 0.276. For “GTTGGCGCTTGGGTTCTAACCTGTTGCCT (site GTCGGCGCTAG)” the value was 0.125; for “GTTGGCGCTTGGGTTCTAACCTGTTGCCT (site GTGGGCGCTAG)”, 0.0363.

In the case of “GTTGGCGCTTGGGTTCTAACCTGTTGCCT (site GTTGGCGCTAG)”, the “recombinant barcode read abundance (log10)” value worked out at 0.841. In the case of “GTTGGGGCTTGGGTTCTAACCTGTTGCCT (site GTGGTGGCTAG)” it was 0.254; in that of “GTTGGGGCTTGGGTTCTAACCTGTTGCCT (site GTTGGGGCTAG)”, 0.634; in that of “GTTTAATCTTGGGTTCTAACCTGTTGCAT (site GTTTAATCTAT)”, 0.343. For “GTTTAATCTTGGGTTCTAACCTGTTGCAT (site TGGGTCACTTA)”, the “recombinant barcode read abundance (log10)” value was determined as 0.0197. For the sequence “GTTTGGACTTGGGTTCTAACCTGTTGCAG (site GCTTGGACTAT)”, the “recombinant barcode read abundance (log10)” value stood at 0.153.

On to “GTTTGGACTTGGGTTCTAACCTGTTGCAG (site GTTTGGACTCT)”, for which the “recombinant barcode read abundance (log10)” value amounted to 1.11. In the case of “GTTTGGACTTGGGTTCTAACCTGTTGCTG (site GTTTGGACTCA)” it was 1.06; in that of “GTTTGGACTTGGGTTCTAACCTGTTGCTG (site GTTTGGACTTA)”, 0.195. For “TAAAAGACTTGGGTTCTAACCTGTTGCCT (site TAAAAGACTAG)” the value was 0.307; for “TAAAAGACTTGGGTTCTAACCTGTTGCCT (site TAAAAGCCTAG)”, 0.0498; for “TAAAAGACTTGGGTTCTAACCTGTTGCCT (site TAAAAGGCTAG)”, 0.311.

On to “TAAAAGACTTGGGTTCTAACCTGTTGCCT (site TAAAAGTCTAG)”, for which the “recombinant barcode read abundance (log10)” value came out at 0.178. For “TAAAAGTCTTGGGTTCTAACCTGTTGCCT (site TAAAAGACTAG)” the value was 0.108; for “TAAAAGTCTTGGGTTCTAACCTGTTGCCT (site TAAAAGCCTAG)”, 0.0186; for “TAAAAGTCTTGGGTTCTAACCTGTTGCCT (site TAAAAGGCTAG)”, 0.0795. In the case of “TAAAAGTCTTGGGTTCTAACCTGTTGCCT (site TAAAAGTCTAG)”, the “recombinant barcode read abundance (log10)” value turned out to be 0.696. In the case of “TAAAGTACTTGGGTTCTAACCTGTTGCTT (site TAAAGTACTAA)” it was 0.467; in that of “TAAAGTACTTGGGTTCTAACCTGTTGCTT (site TAACGTACTAA)”, 0.0583.

“TAAAGTACTTGGGTTCTAACCTGTTGCTT (site TAAGGTACTAA)”: the “recombinant barcode read abundance (log10)” value worked out at 0.017.

“TAAAGTACTTGGGTTCTAACCTGTTGCTT (site TAATGTACTAA)”: the “recombinant barcode read abundance (log10)” value was determined as 0.0546. As for “TAACACTCTTGGGTTCTAACCTGTTGCCT (site TAACACTCTAG)”, the “recombinant barcode read abundance (log10)” value stood at 2. For “TAACACTCTTGGGTTCTAACCTGTTGCCT (site TCACAGTCTAG)”, the “recombinant barcode read abundance (log10)” value is 0.19. For “TAACAGTCTTGGGTTCTAACCTGTTGCGT (site TAACAGTCTAC)”, the “recombinant barcode read abundance (log10)” value came to 2.85. Turning to “TAACAGTCTTGGGTTCTAACCTGTTGCGT (site TAACCGTCTAT)”, the “recombinant barcode read abundance (log10)” value turned out to be 0.246.
